Reference: patent publication US20150315188A1, “COMPOUNDS AND METHODS FOR TREATMENT OF HYPERTENSION” (MEDIVATION TECHNOLOGIES, INC., priority 2012, published 2015)

Assays:
[1] = molecular target: T1, Human adrenergic α2A receptor (Homo sapiens, UniProt P08913); experiment: Radioligand binding, adrenergic α2A (Protocol Group B); design: purchased Milipore (Millipore); conditions: Protocol Group B; for Percentage inhibition of ligand binding, Adrenergic α2A (0.1 μM) / inhibition at 0.1 µM: 0.1 μM compound; for Percentage inhibition of ligand binding, Adrenergic α2A (0.3 μM) / inhibition at 0.3 µM: 0.3 μM compound; for inhibition at 0.3 µM: read-out: Percentage inhibition of ligand binding, Adrenergic α2A (0.3 μM); for Ki: estimated Ki; for inhibition at 0.1 µM: read-out: Percentage inhibition of ligand binding, Adrenergic α2A (0.1 μM)
T1 sequence (P08913 1-465): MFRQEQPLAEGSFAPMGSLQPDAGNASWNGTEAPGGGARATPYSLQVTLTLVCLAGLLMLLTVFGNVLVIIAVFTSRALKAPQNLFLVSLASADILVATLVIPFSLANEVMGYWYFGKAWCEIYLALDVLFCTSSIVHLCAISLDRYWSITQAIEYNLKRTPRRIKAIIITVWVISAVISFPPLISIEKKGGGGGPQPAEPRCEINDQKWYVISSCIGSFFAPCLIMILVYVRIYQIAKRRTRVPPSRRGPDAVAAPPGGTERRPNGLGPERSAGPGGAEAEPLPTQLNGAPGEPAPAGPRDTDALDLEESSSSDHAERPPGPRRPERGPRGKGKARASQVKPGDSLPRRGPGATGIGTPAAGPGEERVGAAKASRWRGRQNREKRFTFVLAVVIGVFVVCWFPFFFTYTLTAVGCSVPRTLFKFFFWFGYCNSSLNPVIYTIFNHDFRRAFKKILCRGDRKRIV
Method in brief: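 Compounds (1% DMSO vehicle, various concentrations) competed against 2 nM [^3H]MK-912 on recombinant receptor membranes for 60 min at 25° C, Tris-HCl pH 7.4 buffer with Mg2+, Ca2+, BSA. Bound radioligand filtered and counted; 10 μM rauwolscine set nonspecific binding. Values: percent inhibition of specific binding or estimated Ki.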

[2] = molecular target: T2, Human adrenergic α1B receptor (Homo sapiens, UniProt P35368); experiment: Radioligand binding, adrenergic α1B (Protocol Group B); design: purchased Milipore (Millipore); conditions: Protocol Group B; for Percentage inhibition of ligand binding, Adrenergic α1B (0.1 μM) / inhibition at 0.1 µM: 0.1 μM compound; for Percentage inhibition of ligand binding, Adrenergic α1B (0.3 μM) / inhibition at 0.3 µM: 0.3 μM compound; for inhibition at 0.3 µM: read-out: Percentage inhibition of ligand binding, Adrenergic α1B (0.3 μM); for Ki: estimated Ki; for inhibition at 0.1 µM: read-out: Percentage inhibition of ligand binding, Adrenergic α1B (0.1 μM)
T2 sequence (P35368 1-520): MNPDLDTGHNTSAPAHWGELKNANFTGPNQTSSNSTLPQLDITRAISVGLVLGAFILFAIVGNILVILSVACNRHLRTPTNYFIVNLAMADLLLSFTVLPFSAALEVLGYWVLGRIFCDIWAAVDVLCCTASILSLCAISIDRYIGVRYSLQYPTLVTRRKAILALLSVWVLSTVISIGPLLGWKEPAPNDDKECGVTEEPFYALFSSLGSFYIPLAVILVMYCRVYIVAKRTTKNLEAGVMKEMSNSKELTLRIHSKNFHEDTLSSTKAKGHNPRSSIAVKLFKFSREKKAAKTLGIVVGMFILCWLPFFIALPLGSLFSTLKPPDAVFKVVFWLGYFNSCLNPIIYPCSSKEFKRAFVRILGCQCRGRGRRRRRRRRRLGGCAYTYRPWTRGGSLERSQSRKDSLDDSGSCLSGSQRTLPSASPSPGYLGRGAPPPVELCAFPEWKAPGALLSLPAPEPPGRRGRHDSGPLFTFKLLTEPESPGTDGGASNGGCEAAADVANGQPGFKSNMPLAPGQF
Method in brief: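 Values are percent inhibition of specific [3H]prazosin (0.3 nM) binding or estimated Ki, from filtration counting. Human α1B recombinant membranes, Tris-HCl pH 7.4 buffer with MgCl2 and EDTA, 60 min at 25 °C, 1% DMSO vehicle; 10 μM prazosin defined nonspecific binding.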

[3] = molecular target: T3, Human adrenergic α2B receptor (Homo sapiens, UniProt P18089); experiment: Radioligand binding, adrenergic α2B (Protocol Group B); design: purchased Milipore (Millipore); conditions: Protocol Group B; for Percentage inhibition of ligand binding, Adrenergic α2B (10 nM) / inhibition at 0.01 µM: 10 nM compound; for Percentage inhibition of ligand binding, Adrenergic α2B (10 nM): 0.01 µM; for Percentage inhibition of ligand binding, Adrenergic α2B (30 nM) / inhibition at 0.03 µM: 30 nM compound; for Percentage inhibition of ligand binding, Adrenergic α2B (30 nM): 0.03 µM; for Ki: estimated Ki, read-out: Ki α2B; for inhibition at 0.01 µM: read-out: Percentage inhibition of ligand binding, Adrenergic α2B (10 nM); for inhibition at 0.03 µM: read-out: Percentage inhibition of ligand binding, Adrenergic α2B (30 nM); for inhibition at 0.1 µM / Percentage inhibition of ligand binding, Adrenergic α2B (0.1 μM): 0.1 μM compound; for inhibition at 0.1 µM: read-out: Percentage inhibition of ligand binding, Adrenergic α2B (0.1 μM)
T3 sequence (P18089 1-450): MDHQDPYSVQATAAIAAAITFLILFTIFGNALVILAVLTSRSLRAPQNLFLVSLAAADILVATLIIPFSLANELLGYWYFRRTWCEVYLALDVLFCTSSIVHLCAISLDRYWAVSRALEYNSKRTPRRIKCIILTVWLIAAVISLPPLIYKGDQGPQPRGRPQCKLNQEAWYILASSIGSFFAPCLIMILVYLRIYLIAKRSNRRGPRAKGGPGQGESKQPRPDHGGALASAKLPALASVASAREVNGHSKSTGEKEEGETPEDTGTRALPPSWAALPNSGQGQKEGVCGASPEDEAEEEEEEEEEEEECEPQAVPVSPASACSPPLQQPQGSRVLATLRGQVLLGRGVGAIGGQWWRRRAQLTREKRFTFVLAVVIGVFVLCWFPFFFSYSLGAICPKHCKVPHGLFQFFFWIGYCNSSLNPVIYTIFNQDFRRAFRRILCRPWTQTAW
Method in brief: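 Compounds at various concentrations in 1% DMSO were tested on recombinant membranes in Tris-HCl pH 7.4 buffer containing MgCl2, CaCl2 and 0.2% BSA.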

[4] = molecular target: T3, Human adrenergic α2B receptor; experiment: β-Arrestin GPCR functional assay, adrenergic α2B (Protocol B); format: cell-based; conditions: β-arrestin, antagonist vs nor-epinephrine EC80; read-out: IC50 Adrenergic α2B
Experimental: To evaluate the activity of compounds in β-Arrestin GPCR functional assays, recombinant CHO cell line (DiscoveRX), over expressed with human adrenergic α2B receptor were used. The experiment was done with kit of DiscoveRX as per recommended protocol of the supplier. Cells were harvested from culture flask using cell dissociation solution (CDS) and plated at a density of 12,000 cells/well in CP reagent (supplied with the kit) in a half area 96-well white polystyrene plate. After 24 h incubation at 37° C., compounds at various concentrations in 1% (final) DMSO were charged to the cells for 30 min at 37° C. Active nor-epinephrine (-NE) at its EC80 concentrations (50 nM) were then added to the cells and incubated for another 90 min at 37° C. Detection mix was prepared by mixing of Path Hunter cell assay buffer, Emerald II solution and Galactone star solution in a ratio of 19:5:1 and incubated with the cells for 60 min at RT in the dark. The reading was taken in Envision at luminescence mode. Biochemical assay results are presented as the percent Inhibition in Table B2a, or IC50 values in Table B2b.

## Cc1ccc2c(c1F)c1c(n2CC(C)(O)c2cccnc2)CCN2CCCC12 (single isomer, unassigned) [87a]
[1]
  Percentage inhibition of ligand binding, Adrenergic α2A (0.1 μM): 19%
  Percentage inhibition of ligand binding, Adrenergic α2A (0.3 μM): 33%
[2]
  Percentage inhibition of ligand binding, Adrenergic α1B (0.1 μM): 13%
  Percentage inhibition of ligand binding, Adrenergic α1B (0.3 μM): 27%
[3]
  Percentage inhibition of ligand binding, Adrenergic α2B (10 nM): 30%
  Percentage inhibition of ligand binding, Adrenergic α2B (30 nM): 63%
  Ki: 20.6 nM
[4]
  IC50: 303 nM

## Cc1ccc2c(c1)c1c(n2CC(C)(O)c2cccnc2)CC2CCCN2C1 (single isomer, unassigned) [38b]
[1]
  Percentage inhibition of ligand binding, Adrenergic α2A (0.1 μM): 16%
  inhibition at 0.3 µM: 42%
  Ki: 291 nM
[2]
  Percentage inhibition of ligand binding, Adrenergic α1B (0.1 μM): 15%
  inhibition at 0.3 µM: 33%
  Ki: 179 nM
[3]
  inhibition at 0.01 µM: 38%
  inhibition at 0.03 µM: 72%
  inhibition at 0.1 µM: 90%
  Ki: 7.16 nM
[4]
  IC50: 237 nM

## Cc1ccc2c(c1)c1c(n2CC(O)c2ccncc2)CNC2CCCC12 (single isomer, unassigned) [34c]
[1]
  inhibition at 0.1 µM: 4%
  inhibition at 0.3 µM: 11%
  Ki: 5160 nM
[2]
  inhibition at 0.1 µM: 3%
  inhibition at 0.3 µM: 28%
  Ki: 379 nM
[3]
  inhibition at 0.01 µM: 52%
  inhibition at 0.03 µM: 80%
  inhibition at 0.1 µM: 90%
  Ki: 4.6 nM
[4]
  IC50: 251 nM

## Cc1cc(F)cc2c3c(n(CC(C)(O)c4cccnc4)c12)CCN1CCCC31 (single isomer, unassigned) [75d]
[1]
  Percentage inhibition of ligand binding, Adrenergic α2A (0.1 μM): 25%
  Percentage inhibition of ligand binding, Adrenergic α2A (0.3 μM): 41%
[2]
  Percentage inhibition of ligand binding, Adrenergic α1B (0.1 μM): 15%
  Percentage inhibition of ligand binding, Adrenergic α1B (0.3 μM): 33%
[3]
  Percentage inhibition of ligand binding, Adrenergic α2B (10 nM): 55%
  Percentage inhibition of ligand binding, Adrenergic α2B (30 nM): 79%
  Ki: 8.65 nM
[4]
  IC50: 381 nM

## Cc1ccc2c(c1)c1c(n2CC(O)c2ccncc2)CNC2CCCC12 (single isomer, unassigned) [34d]
[1]
  Percentage inhibition of ligand binding, Adrenergic α2A (0.1 μM): −2%
  Percentage inhibition of ligand binding, Adrenergic α2A (0.3 μM): −1%
[2]
  Percentage inhibition of ligand binding, Adrenergic α1B (0.1 μM): 6%
  Percentage inhibition of ligand binding, Adrenergic α1B (0.3 μM): 22%
[3]
  Percentage inhibition of ligand binding, Adrenergic α2B (10 nM): 14%
  Percentage inhibition of ligand binding, Adrenergic α2B (30 nM): 2%
  Percentage inhibition of ligand binding, Adrenergic α2B (0.1 μM): 25%

## OC(Cn1c2c(c3cc(F)cc(F)c31)C1CCCN1CC2)c1ccncc1 (single isomer, unassigned) [144b]
[1]
  Percentage inhibition of ligand binding, Adrenergic α2A (0.1 μM): 61%
[2]
  Percentage inhibition of ligand binding, Adrenergic α1B (0.1 μM): 18%
[3]
  Percentage inhibition of ligand binding, Adrenergic α2B (30 nM): 100%

## CN1CCc2c(c3cccc(Cl)c3n2CC(O)c2cccnc2)C1 (stereo not drawn) [compound 20, 2-(6-chloro-2-methyl-3,4-dihydro-1H-pyrido[4,3-b]indol-5-(2H)-yl)-1-(pyridin-3-yl)ethanol]
[1]
  inhibition at 0.1 µM: 12%
  inhibition at 0.3 µM: 23%
[2]
  inhibition at 0.1 µM: 10%
  inhibition at 0.3 µM: 15%
[3]
  inhibition at 0.01 µM: 6%
  inhibition at 0.03 µM: 35%
  inhibition at 0.1 µM: 54%

## CC(O)(Cn1c2c(c3cc(Cl)cc(F)c31)CN1CCCC1C2)c1ccncc1 (single isomer, unassigned) [86a]
[1]
  Percentage inhibition of ligand binding, Adrenergic α2A (0.1 μM): −4%
  inhibition at 0.3 µM: 11%
[2]
  inhibition at 0.1 µM: 2%
  Percentage inhibition of ligand binding, Adrenergic α1B (0.3 μM): 30%
[3]
  Percentage inhibition of ligand binding, Adrenergic α2B (10 nM): −2%
  inhibition at 0.03 µM: 23%

## Cc1cc(Cl)c2c(c1)c1c(n2CC(C)(O)c2ccncc2)CCN2CCCC12 (single isomer, unassigned) [91d]
[1]
  Percentage inhibition of ligand binding, Adrenergic α2A (0.1 μM): −2%
  Percentage inhibition of ligand binding, Adrenergic α2A (0.3 μM): 11%
[2]
  Percentage inhibition of ligand binding, Adrenergic α1B (0.1 μM): −19%
  Percentage inhibition of ligand binding, Adrenergic α1B (0.3 μM): 6%
[3]
  Percentage inhibition of ligand binding, Adrenergic α2B (10 nM): −1%
  Percentage inhibition of ligand binding, Adrenergic α2B (30 nM): 24%

## Cc1cc(C)c2c(c1)c1c(n2CC(O)C2CCCCC2)CCN2CCCC12 (stereo not drawn) [141a]
[1]
  inhibition at 0.1 µM: 85%
[2]
  inhibition at 0.1 µM: 55%
[3]
  inhibition at 0.03 µM: 93%

## Cc1ccc2c(c1)c1c(n2CC(C)(O)c2cccnc2)CCN(C)C1CO (single isomer, unassigned) [16a]
[1]
  Percentage inhibition of ligand binding, Adrenergic α2A (0.1 μM): 8%
  inhibition at 0.3 µM: 9%
[2]
  Percentage inhibition of ligand binding, Adrenergic α1B (0.1 μM): 16%
  inhibition at 0.3 µM: 9%
[3]
  Percentage inhibition of ligand binding, Adrenergic α2B (10 nM): −1%
  Percentage inhibition of ligand binding, Adrenergic α2B (30 nM): −14%
  Percentage inhibition of ligand binding, Adrenergic α2B (0.1 μM): 1%

## Cc1cc(F)c2c(c1)c1c(n2CC(O)c2ccncc2)CCN2CCCC12 (single isomer, unassigned) [137c]
[1]
  inhibition at 0.1 µM: 10%
  Percentage inhibition of ligand binding, Adrenergic α2A (0.3 μM): 2%
[2]
  inhibition at 0.1 µM: 12%
  inhibition at 0.3 µM: 14%
[3]
  inhibition at 0.01 µM: 14%
  Percentage inhibition of ligand binding, Adrenergic α2B (30 nM): 10%

## Cc1ccc2c(c1)c1c(n2CC(O)c2ccncc2)CNC2CCCC12 (single isomer, unassigned) [34a]
[1]
  Percentage inhibition of ligand binding, Adrenergic α2A (0.1 μM): −9%
  Percentage inhibition of ligand binding, Adrenergic α2A (0.3 μM): −5%
[2]
  Percentage inhibition of ligand binding, Adrenergic α1B (0.1 μM): −2%
  Percentage inhibition of ligand binding, Adrenergic α1B (0.3 μM): −10%
[3]
  inhibition at 0.01 µM: 21%
  Percentage inhibition of ligand binding, Adrenergic α2B (30 nM): −12%
  Percentage inhibition of ligand binding, Adrenergic α2B (0.1 μM): −11%
